{"source": "paper PMC6934184", "about": "“Selective DNA-PKcs inhibition extends the therapeutic index of localized radiotherapy and chemotherapy” (The Journal of Clinical Investigation, 2019)", "target": "T1, STK22D (TSSK1) (Homo sapiens, UniProt Q9BXA7)", "T1 construct": "purchased Thermo Fisher Scientific (Life Technologies) SelectScreen", "T1 sequence (Q9BXA7 whole entry)": "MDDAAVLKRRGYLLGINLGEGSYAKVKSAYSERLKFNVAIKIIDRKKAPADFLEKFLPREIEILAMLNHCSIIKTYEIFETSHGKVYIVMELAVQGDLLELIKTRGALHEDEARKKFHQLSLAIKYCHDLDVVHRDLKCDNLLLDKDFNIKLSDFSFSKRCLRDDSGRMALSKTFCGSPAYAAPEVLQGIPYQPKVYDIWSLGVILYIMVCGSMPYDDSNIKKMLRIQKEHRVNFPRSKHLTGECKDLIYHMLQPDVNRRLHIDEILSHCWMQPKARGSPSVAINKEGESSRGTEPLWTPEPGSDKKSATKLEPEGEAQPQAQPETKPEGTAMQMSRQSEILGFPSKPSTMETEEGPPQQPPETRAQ", "experiment": "SelectScreen Z'LYTE", "type": "biochemical", "how_it_was_run": "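NU5455 was profiled across the SelectScreen Broad panel of kinase activity and binding assays. Z'LYTE reactions such as CSF1R ran at apparent Km ATP, while the Adapta CAMK1 assay used ATP listed as 10. Values are given as percent.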"}
{"molecule": "CN(C(=O)CN1CCOCC1)c1ccc2sc3c(-c4cccc5c(=O)cc(N6CC7CCC(C6)O7)oc45)cccc3c2c1", "note": "[NU5455]", "values": [{"measurement": "inhibition at 1 µM", "value": 4.2, "unit": "%"}]}
